Laboratory results from patent US7244614B2, “Fusion proteins and assays for molecular binding” (Cellomics, Inc., priority 2001, dated 2007).

Experiments:
Type in all cases: cell-based
[1] = system: catalytic domain of cAMP-dependent protein kinase (cPKA); assay: cAMP-dependent protein kinase interaction fusion protein redistribution (nucleus/cytoplasm) in transfected HeLa cells, ArrayScan II; conditions: serum starved 24 h, forskolin 2 h or PMA 1 h
Text: In this example, a fusion protein for detecting the availability for specific binding of the catalytic domain of cAMP-dependent protein kinase (cPKA), the protein of interest, is based on the distribution of the fusion protein between the cytoplasm and nucleus. It is constructed such that the detection domain is a GFP, the first localization domain is the NLS from SV40 large T-antigen, the second localization domain is the NES from MAPKAP2, and the binding domain is from CREB. The NLS and the binding domain are separated by 2 amino acids. The fusion protein is introduced into cells via DNA transfection or retrovirus infection. The catalytic domain cPKA binds to the regulatory domain of PKA (rPKA) in the absence of cAMP. With an increase in the concentration of cAMP, cPKA dissociates from rPKA, enabling cPKA to bind to the fusion protein. Operationally, the binding of cPKA to the binding domain blocks the localization of this fusion protein into the nucleus. […] The ratio of these intensities can be readily measured. This fusion protein can detect cPKA binding in either the nucleus or cytoplasm. Contacting the cell with a compound that causes a separation of cPKA from rPKA, such as forskolin, via an increase cAMP, will shift the distribution of the fusion protein from the nucleus to the cytoplasm. […]

[2] = system: MAPK; assay: MAPK binding fusion protein (first variant, mutated n-myc NLS) redistribution in transfected HeLa cells, ArrayScan II; conditions: for change in localization of the fusion protein to the cytoplasm upon activation: serum starved 24 h, PMA 1.5 nM or sorbitol 200 mM, 1 hour; for inhibition of the change in distribution of the fusion protein: 2 hours pretreatment with 10 uM inhibitor, then PMA
Text: In this example, a fusion protein for detecting the availability for specific binding of MAPK, the protein of interest, is based on the distribution of the fusion protein between the cytoplasm and nucleus. It is constructed such that the detection domain is a GFP, the first localization sequence is a mutated NLS from n-myc, the second localization sequence is an NES from MAPKAP2, and the binding domain is the MAPK binding domain from RSK-1. The NLS and MAPK binding domain are separated by 2 amino acids. Operationally, the binding of MAPK to the binding domain blocks the localization of this fusion protein into the nucleus. […] Contacting the cell with a compound that activates MAPK, such as PMA or serum, will activate MAPK by inducing a dissociation of MAPK from MEK1, thus making MAPK available for binding to the RSK-1 binding domain in the fusion protein, and will shift the distribution of the fusion protein from the nucleus to the cytoplasm.
As shown below, this fusion protein was constructed using a GFP, a mutated nuclear localization signal from n-myc, based on human n-myc (Genbank accession number Y00664), the sequence from Proline 315 to Alanine 361 of MAPKAP2 (Genbank accession number X76850), which includes a nuclear export signal (between D^328 to E^351, SEQ ID NO:317), and the MAPK binding domain from RSK1 spanning from S^718 to T^733 (Genbank accession number L07597).
(§1) Protocol: HeLa cells were transiently transfected with the fusion protein. Cells were serum starved for 24 hours prior to treatment. Cells were then exposed to PMA (1.5 nM) or sorbitol (200 mM) for 1 hour. For inhibitor treatment, cells were pretreated for 2 hours with 10 uM inhibitor, and then treated with PMA, in parallel with non-inhibitor-treated cells. Cells were then treated with 3.7% formaldehyde & Hoechst 33342 for 20 minutes to fix and stain the nuclei, and then washed. Data was collected on ArrayScan II® (Cellomics, Inc. Pittsburgh, Pa.). […] Most, if not all, of the fusion protein was affected. The change in distribution was inhibitable by pretreatment of 10 uM PD98059, a specific inhibitor of MAPK activation, but not by SB203580, a specific inhibitor of p38 MAPK activation. Second Variant Protocol: HeLa cells were transiently transfected with the fusion protein. Cells were serum starved for 24 hours prior to treatment. Cells were exposed to serum (20%) or PMA (200 nM) for 2 hours. Cells were then treated with 3.7% formaldehyde & Hoechst 33342 for 20 minutes to fix and stain the nuclei, and then washed. Data was collected on ArrayScan II® (Cellomics, Inc. Pittsburgh, Pa.).

[3] = system: MAPK; assay: MAPK binding fusion protein (second variant, SV40 NLS) redistribution in transfected HeLa cells, ArrayScan II; conditions: serum starved 24 h, serum 20% or PMA 200 nM, 2 hours
Description: A variant of this MAPK binding fusion protein was also prepared. This fusion protein was constructed using a GFP, a nuclear localization signal from the SV 40 large T antigen (SEQ ID NO:145, Genbank accession number J02400), specifically P^126 to V^132, the sequence from Glutamic Acid 327 to Isoleucine 353 of MAPKAP2 (Genbank accession number X76850), which includes a nuclear export signal (between D^328 to E^351, SEQ ID NO:317), and the MAPK binding domain from RSK1, spanning from S^718 to T^733 (Genbank accession number L07597).
as §1, with “Second Variant Protocol: HeLa cells were transiently transfected with the fusion protein. Cells were serum starved for 24 hours prior to treatment. Cells were exposed to serum (20%) or PMA (200 nM) for 2 hours. Cells were then treated with 3.7% formaldehyde & Hoechst 33342 for 20 minutes to fix and stain the nuclei, and then washed. Data was collected on ArrayScan II® (Cellomics, Inc. Pittsburgh, Pa.).” left out

[4] = system: c-Jun N-terminal kinase (JNK); assay: c-Jun N-terminal protein kinase fusion protein redistribution in transfected HeLa cells, ArrayScan II; conditions: for change in localization of the fusion protein to the cytoplasm upon activation: serum starved 24 h, anisomycin 500 nM, sorbitol 300 mM, TNF 100 ng/ml or staurosporine 1 uM, 1 hour
Text: It is constructed such that the detection domain is a GFP, the first localization domain is a modified SV40 T antigen NLS, the second localization domain is an NES from MAPKAP2, and the binding domain is the JNK binding domain from c-jun. […] This example illustrates the detection and monitoring of a binding event induced to occur within the cell.
As shown below, this fusion protein was constructed using GFP, a modified nuclear localization signal from SV40 T antigen, the sequence from Proline 315 to Serine 362 of MAPKAP2 (Genbank accession number X76850), which includes a nuclear export signal (between D^328 to E^351, SEQ ID NO:317), and the sequence from P^30 to L^60 of c-Jun,(accession number J04111), which serves as the JNK binding domain.
Protocol: HeLa cells were transiently transfected with the fusion protein. Cells were serum starved for 24 hours prior to treatment. Cells were exposed to test compounds known to induce cell stress, including anisomycin (500 nM), sorbitol (300 mM), TNF (tumor necrosis factor, 100 ng/ml), or staurosporine (1 uM), for 1 hour. For inhibitor treatment, cells were pretreated for 2 hours with 10 uM inhibitor then treated with anisomycin, in parallel with non-inhibitor-treated cells. Cells were then treated with 3.7% formaldehyde & Hoechst 33342 for 20 minutes to fix and stain the nuclei, and then washed. Data was collected on ArrayScan II® (Cellomics, Inc. Pittsburgh, Pa.).

| Structure (SMILES) | change in localization of the fusion protein to the cytoplasm upon activation [2] | inhibition of the change in distribution of the fusion protein [2] | change in localization of the fusion protein to the cytoplasm upon activation [4] | also measured |
| --- | --- | --- | --- | --- |
| CCCCCCCCCCCCCC(=O)O[C@@H]1[C@@H](C)[C@@]2(O)[C@@H](C=C(CO)C[C@]3(O)C(=O)C(C)=C[C@@H]23)[C@@H]2C(C)(C)[C@]12OC(C)=O [PMA, Phorbol-12-Myristate-13-Acetate] | led to a change in localization of the fusion protein to the cytoplasm |  |  | change in localization of the fusion protein to the cytoplasm upon activation [1]: led to a change in localization of the fusion protein to the cytoplasm; change in localization of the fusion protein to the cytoplasm upon activation [3]: led to a change in localization of the fusion protein to the cytoplasm |
| C[S+]([O-])c1ccc(-c2nc(-c3ccncc3)c(-c3ccc(F)cc3)[nH]2)cc1 (stereo not drawn) [SB203580] |  | not |  | effect of inhibitor pretreatment on the change in distribution of the fusion protein ([4]; 2 hours pretreatment with 10 uM inhibitor, then anisomycin): not affected |
| COc1cccc(-c2cc(=O)c3ccccc3o2)c1N [PD98059] |  | inhibitable |  |  |
| CN[C@@H]1C[C@H]2O[C@@](C)([C@@H]1OC)n1c3ccccc3c3c4c(c5c6ccccc6n2c5c31)C(=O)NC4 [staurosporine] |  |  | led to a change in localization of the fusion protein to the cytoplasm |  |
| COc1ccc(C[C@H]2NC[C@H](O)[C@H]2OC(C)=O)cc1 [anisomycin] |  |  | led to a change in localization of the fusion protein to the cytoplasm |  |
| OC[C@@H](O)[C@@H](O)[C@H](O)[C@@H](O)CO [sorbitol] | did not induce a change in the localization of the fusion protein |  |  |  |
